Laboratory results published in patent US11542259B2, “Compounds for the treatment of kinase-dependent disorders” (Exelixis, Inc., priority 2018, dated 2023).

Legend:
Assay type in all cases: cell-based
AXL = AXL (Homo sapiens (Human), UniProt P30530); experiment: AXL autophosphorylation ELISA in A-172 cells; settings: cellular, Gas6 stimulated
Protocol: A-172 glioblastoma cells (ATCC #CRL-1620) were seeded at 2.5×10^5 cells/well onto 24-well plates (Greiner #662165), in DMEM (Thermo Fisher #11995-040) containing 10% FBS (Thermo Fisher #26140-079), 1% MEM NEAA (Thermo Fisher #11140-050), 1% GlutaMax (Thermo Fisher #35050-061) and 1% Penicillin Streptomycin (Thermo Fisher #15140-122). A-172 cells were incubated at 37° C., 5% CO2 for 24 h and then starved for 24 h in serum-free medium. Test compounds were serially diluted to produce an 8-point dose curve in fresh serum-free medium to a final concentration of 0.3% DMSO (vehicle) and added to the cells and incubated for 1 h. Cells were then stimulated with 1 μg/mL recombinant human Gas6 (R&D Systems #885-GSB-500) for 15 min, washed with cold PBS and immediately lysed with 150 μL of cold 1× lysis buffer [20 mM Tris, 137 mM sodium chloride, 2 mM EDTA, 10% glycerol, 1% NP-40 alternative, 1 mM activated sodium orthovanadate, 1 mM PefaBloc SC (Sigma-Aldrich #11429868001), protease/phosphatase inhibitor tablet (Thermo Fisher #A32959)]. Lysates were collected and 100 μL/well added into the human phospho-AXL DuoSet IC ELISA (R&D Systems #DYC2228-2). Assay was performed according to manufacturer's instructions and sample phospho-AXL concentrations were extrapolated using human phospho-AXL control (R&D Systems #841645) as a standard. Positive control wells (100% activity) contained Gash-stimulated, DMSO-treated cell lysates. Negative control wells (0% activity) contained Gash-stimulated, reference inhibitor-treated cell lysates. IC50 values were calculated by nonlinear regression analysis using a 4-parameter logistic curve fit in ActivityBase XE (IDBS).

KDR = KDR (Homo sapiens (Human), UniProt P35968); experiment: KDR autophosphorylation ELISA in HUVEC cells; settings: cellular, VEGF165 stimulated
Sequence of KDR (P35968 20-1356): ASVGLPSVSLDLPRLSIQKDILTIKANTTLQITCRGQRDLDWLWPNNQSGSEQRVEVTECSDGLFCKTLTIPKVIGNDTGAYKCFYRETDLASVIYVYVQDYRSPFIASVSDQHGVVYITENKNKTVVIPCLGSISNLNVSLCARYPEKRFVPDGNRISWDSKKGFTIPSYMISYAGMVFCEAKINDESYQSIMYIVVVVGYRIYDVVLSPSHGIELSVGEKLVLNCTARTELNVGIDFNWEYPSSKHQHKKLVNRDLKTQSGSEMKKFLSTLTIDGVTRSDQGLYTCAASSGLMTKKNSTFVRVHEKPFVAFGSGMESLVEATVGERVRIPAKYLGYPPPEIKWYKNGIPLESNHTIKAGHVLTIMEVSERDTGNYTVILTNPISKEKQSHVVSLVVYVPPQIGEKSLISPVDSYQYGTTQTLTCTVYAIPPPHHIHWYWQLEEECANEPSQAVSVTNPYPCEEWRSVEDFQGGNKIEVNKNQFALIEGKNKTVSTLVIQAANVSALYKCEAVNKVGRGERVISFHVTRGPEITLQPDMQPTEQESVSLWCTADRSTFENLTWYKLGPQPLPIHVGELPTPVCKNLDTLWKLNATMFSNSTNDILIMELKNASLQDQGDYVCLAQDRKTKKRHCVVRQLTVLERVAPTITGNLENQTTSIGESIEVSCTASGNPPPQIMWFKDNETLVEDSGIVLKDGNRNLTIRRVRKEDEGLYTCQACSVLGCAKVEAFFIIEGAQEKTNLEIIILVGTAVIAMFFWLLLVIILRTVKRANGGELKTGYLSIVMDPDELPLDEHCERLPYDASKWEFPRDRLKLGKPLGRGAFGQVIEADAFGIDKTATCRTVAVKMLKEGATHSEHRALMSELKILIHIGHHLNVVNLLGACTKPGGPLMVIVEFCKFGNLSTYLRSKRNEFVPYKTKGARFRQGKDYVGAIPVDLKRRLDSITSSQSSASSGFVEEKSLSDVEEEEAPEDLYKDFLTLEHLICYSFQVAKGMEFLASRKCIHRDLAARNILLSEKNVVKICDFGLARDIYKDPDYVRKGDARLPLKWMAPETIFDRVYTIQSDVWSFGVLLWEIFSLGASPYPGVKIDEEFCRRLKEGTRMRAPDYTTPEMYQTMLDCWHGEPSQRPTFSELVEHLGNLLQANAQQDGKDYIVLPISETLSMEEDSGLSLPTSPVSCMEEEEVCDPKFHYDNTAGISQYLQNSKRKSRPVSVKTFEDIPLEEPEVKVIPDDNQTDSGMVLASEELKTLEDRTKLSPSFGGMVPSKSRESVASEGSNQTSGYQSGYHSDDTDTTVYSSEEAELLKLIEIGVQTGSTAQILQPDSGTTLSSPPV
Protocol: Human umbilical vein endothelial cells or HUVEC (Lonza #C2519A) were seeded at 2×10^4 cells/well onto 96-well plates (Corning #3904), in EGM-2 growth medium (Lonza #CC-3162) containing 1% Penicillin Streptomycin (Thermo Fisher #15140-122). HUVEC cells were incubated at 37° C., 5% CO2 for 24 h and then starved for 24 h in serum-free EBM-2 basal medium (Lonza #CC-3156) containing 1% Penicillin Streptomycin. Test compounds were serially diluted to produce an 8-point dose curve in fresh serum-free medium to a final concentration of 0.3% DMSO (vehicle) and added to the cells and incubated for 1 h. Cells were then stimulated with 100 ng/mL recombinant human VEGF165 (R&D Systems #293-VE-500) for 5 min, washed with cold PBS, and immediately lysed with 130 μL of cold 1× lysis buffer [20 mM Tris, 137 mM sodium chloride, 2 mM EDTA, 10% glycerol, 1% NP-40 alternative, 1 mM activated sodium orthovanadate, 1 mM PefaBloc SC (Sigma-Aldrich #11429868001), protease/phosphatase inhibitor tablet (Thermo Fisher #A32959)]. Lysates were collected and 100 μL/well added into the human phospho-KDR DuoSet IC ELISA (R&D Systems #DYC1766-2). Assay was performed according to manufacturer's instructions and sample phospho-KDR concentrations were extrapolated using human phospho-KDR control (R&D Systems #841421) as a standard. Positive control wells (100% activity) contained VEGF165-stimulated, DMSO-treated cell lysates. Negative control wells (0% activity) contained non-stimulated cell lysates. IC50 values were calculated by nonlinear regression analysis using a 4-parameter logistic curve fit in ActivityBase XE (IDBS).

Met = Met (Homo sapiens (Human), UniProt P08581); experiment: Met autophosphorylation ELISA in PC-3 cells; settings: cellular, HGF stimulated, read-out: c-Met IC50
Sequence of Met (P08581 25-1390): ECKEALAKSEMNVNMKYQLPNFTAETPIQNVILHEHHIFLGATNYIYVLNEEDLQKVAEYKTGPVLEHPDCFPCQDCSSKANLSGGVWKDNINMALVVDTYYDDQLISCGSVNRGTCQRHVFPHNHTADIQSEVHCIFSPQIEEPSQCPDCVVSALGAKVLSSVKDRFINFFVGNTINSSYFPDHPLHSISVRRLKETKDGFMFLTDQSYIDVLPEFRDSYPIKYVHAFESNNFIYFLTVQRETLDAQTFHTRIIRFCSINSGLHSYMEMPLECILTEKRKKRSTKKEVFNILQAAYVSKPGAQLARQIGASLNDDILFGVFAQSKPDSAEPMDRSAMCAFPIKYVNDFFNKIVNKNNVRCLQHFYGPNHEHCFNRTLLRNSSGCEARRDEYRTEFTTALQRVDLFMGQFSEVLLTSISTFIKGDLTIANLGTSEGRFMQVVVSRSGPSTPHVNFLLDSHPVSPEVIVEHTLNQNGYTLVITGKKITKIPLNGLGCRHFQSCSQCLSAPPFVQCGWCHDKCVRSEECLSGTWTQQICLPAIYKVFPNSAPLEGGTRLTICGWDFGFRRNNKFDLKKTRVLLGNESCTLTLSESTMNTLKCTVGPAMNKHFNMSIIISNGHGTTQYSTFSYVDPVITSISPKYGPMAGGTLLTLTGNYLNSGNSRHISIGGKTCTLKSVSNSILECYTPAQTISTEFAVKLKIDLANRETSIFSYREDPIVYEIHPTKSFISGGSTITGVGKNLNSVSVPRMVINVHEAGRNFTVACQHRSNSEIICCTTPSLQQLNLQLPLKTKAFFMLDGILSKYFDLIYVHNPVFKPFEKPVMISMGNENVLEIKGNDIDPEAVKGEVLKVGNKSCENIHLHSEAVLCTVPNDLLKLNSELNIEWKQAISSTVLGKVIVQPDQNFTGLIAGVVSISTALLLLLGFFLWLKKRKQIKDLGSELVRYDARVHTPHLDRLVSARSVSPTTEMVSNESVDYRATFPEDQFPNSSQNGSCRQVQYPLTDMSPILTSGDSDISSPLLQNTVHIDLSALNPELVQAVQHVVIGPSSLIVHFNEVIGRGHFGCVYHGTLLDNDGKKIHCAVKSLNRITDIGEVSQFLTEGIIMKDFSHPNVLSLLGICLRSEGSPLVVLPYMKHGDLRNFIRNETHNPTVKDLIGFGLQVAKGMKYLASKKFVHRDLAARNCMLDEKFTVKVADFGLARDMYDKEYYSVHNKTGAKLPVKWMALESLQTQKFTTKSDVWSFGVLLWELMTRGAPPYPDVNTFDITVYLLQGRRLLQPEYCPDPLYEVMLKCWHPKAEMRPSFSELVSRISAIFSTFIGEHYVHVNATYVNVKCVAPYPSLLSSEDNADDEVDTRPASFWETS
Protocol: PC-3 prostate cancer cells (ATCC #CRL-1435) were seeded at 4×10^4 cells/well onto 24-well plates (Greiner #662165), in DMEM (Thermo Fisher #11995-040) containing 10% FBS (Thermo Fisher #26140-079), 1% MEM NEAA (Thermo Fisher #11140-050), 1% GlutaMax (Thermo Fisher #35050-061), and 1% Penicillin Streptomycin (Thermo Fisher #15140-122). PC-3 cells were incubated at 37° C., 5% CO2 for 24 h and then starved for 3 h in serum-free medium. Test compounds were serially diluted to produce an 8-point dose curve in fresh serum-free medium to a final concentration of 0.3% DMSO (vehicle) and added to the cells and incubated for 1 h. Cells were then stimulated with 100 ng/mL recombinant human HGF (R&D Systems #294-HG-250) for 10 min, washed with cold PBS and immediately lysed with 130 μL of cold 1× lysis buffer [20 mM Tris, 137 mM sodium chloride, 2 mM EDTA, 10% glycerol, 1% NP-40 alternative, 1 mM activated sodium orthovanadate, 1 mM PefaBloc SC (Sigma-Aldrich #11429868001), protease/phosphatase inhibitor tablet (Thermo Fisher #A32959)]. Lysates were clarified by centrifugation and 100 μL/well added into the PathScan phospho-Met (panTyr) Sandwich ELISA (Cell Signaling Technology #7333). Assay was performed according to manufacturer's instructions. Positive control wells (100% activity) contained HGF-stimulated, DMSO-treated cell lysates. Negative control wells (0% activity) contained HGF-stimulated, reference inhibitor-treated cell lysates. IC50 values were calculated by nonlinear regression analysis using a 4-parameter logistic curve fit in ActivityBase XE (IDBS).

Sequence of AXL (P30530 26-894): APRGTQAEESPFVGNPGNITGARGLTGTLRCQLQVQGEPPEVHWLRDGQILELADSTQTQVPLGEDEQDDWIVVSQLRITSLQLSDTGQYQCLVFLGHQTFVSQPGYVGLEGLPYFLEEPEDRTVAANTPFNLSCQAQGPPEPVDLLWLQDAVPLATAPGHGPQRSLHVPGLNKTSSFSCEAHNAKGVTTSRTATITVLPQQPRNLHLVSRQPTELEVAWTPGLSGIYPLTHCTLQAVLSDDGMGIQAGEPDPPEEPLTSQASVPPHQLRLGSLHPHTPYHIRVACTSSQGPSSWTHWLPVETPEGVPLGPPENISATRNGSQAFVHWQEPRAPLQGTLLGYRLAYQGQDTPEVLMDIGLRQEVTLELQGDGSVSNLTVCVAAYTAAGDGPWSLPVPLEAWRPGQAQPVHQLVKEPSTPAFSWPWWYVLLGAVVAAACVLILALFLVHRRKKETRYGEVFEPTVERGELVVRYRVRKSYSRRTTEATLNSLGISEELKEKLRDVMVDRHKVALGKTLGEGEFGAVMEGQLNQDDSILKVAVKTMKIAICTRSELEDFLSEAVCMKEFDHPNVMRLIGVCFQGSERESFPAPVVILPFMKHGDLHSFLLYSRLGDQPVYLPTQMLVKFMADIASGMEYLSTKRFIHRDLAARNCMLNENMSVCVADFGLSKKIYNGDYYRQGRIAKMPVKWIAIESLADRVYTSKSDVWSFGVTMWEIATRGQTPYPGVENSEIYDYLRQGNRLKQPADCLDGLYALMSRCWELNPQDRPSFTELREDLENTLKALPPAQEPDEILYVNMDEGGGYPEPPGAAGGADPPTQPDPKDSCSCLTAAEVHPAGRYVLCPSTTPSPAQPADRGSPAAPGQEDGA

| Structure (SMILES) | IC50 (AXL) [nM] | IC50 (KDR) [nM] | IC50 (Met) [nM] |
| --- | --- | --- | --- |
| O=C(Nc1ccc(F)cc1)C1(C(=O)Nc2ccc(Oc3ccnc4ccc(-c5ccn[nH]5)cc34)cc2)CC1 [Compound 204, 1-N′-(4-Fluorophenyl)-1-N-[4-[6-(1H-pyrazol-5-yl)quinolin-4-yl]oxyphenyl]cyclopropane-1,1-dicarboxamide] | 10 to 100 | 10 to 100 | 10 to 100 |
| NS(=O)(=O)c1ccc2nccc(Oc3ccc(NC(=O)C4(C(=O)Nc5ccc(F)cc5)CC4)cc3)c2c1 [Compound 209, 1-N′-(4-Fluorophenyl)-1-N-[4-(6-sulfamoylquinolin-4-yl)oxyphenyl]cyclopropane-1,1-dicarboxamide] | 100 to 300 | 10 to 100 | 100 to 300 |
| O=C(Nc1ccc(F)cc1)C1(C(=O)Nc2ccc(Oc3ccnc4ccc(-c5nnco5)cc34)cc2)CC1 [Compound 221, 1-N′-(4-Fluorophenyl)-1-N-[4-[6-(1,3,4-oxadiazol-2-yl)quinolin-4-yl]oxyphenyl]cyclopropane-1,1-dicarboxamide] | 10 to 100 | 100 to 300 | 100 to 300 |
| NS(=O)(=O)c1ccc2c(Oc3ccc(NC(=O)C4(C(=O)Nc5ccc(F)cc5)CC4)cc3)ccnc2c1 [Compound 254, 1-N′-(4-Fluorophenyl)-1-N-[4-(7-sulfamoylquinolin-4-yl)oxyphenyl]cyclopropane-1,1-dicarboxamide] | 100 to 300 | > 300 | 100 to 300 |
| CC(=O)c1ccc2c(Oc3ccc(NC(=O)C4(C(=O)Nc5ccc(F)cc5)CC4)cc3)ccnc2c1 [Compound 255, 1-N-[4-(7-Acetylquinolin-4-yl)oxyphenyl]-1-N′-(4-fluorophenyl)cyclopropane-1,1-dicarboxamide] | > 300 | > 300 | 100 to 300 |
| CO/N=C(\C)c1ccc2c(Oc3ccc(NC(=O)C4(C(=O)Nc5ccc(F)cc5)CC4)cc3)ccnc2c1 [Compound 256, 1-N′-(4-Fluorophenyl)-1-N-[4-[7-[(E)-N-methoxy-C-methylcarbonimidoyl]quinolin-4-yl]oxyphenyl]cyclopropane-1,1-dicarboxamide] | 100 to 300 | 100 to 300 | 100 to 300 |
| CNC(=O)Nc1ccc2c(Oc3ccc(NC(=O)C4(C(=O)Nc5ccc(F)cc5)CC4)cc3)ccnc2c1 [Compound 281, 1-N′-(4-Fluorophenyl)-1-N-[4-[7-(methylcarbamoylamino)quinolin-4-yl]oxyphenyl]cyclopropane-1,1-dicarboxamide] | 100 to 300 | 100 to 300 | 10 to 100 |
| COC(=O)Nc1ccc2c(Oc3ccc(NC(=O)C4(C(=O)Nc5ccc(F)cc5)CC4)cc3)ccnc2c1 [Compound 282, Methyl N-[4-[4-[[1-[(4-fluorophenyl)carbamoyl]cyclopropanecarbonyl]-amino]phenoxy]quinolin-7-yl]carbamate] | 100 to 300 | > 300 | 100 to 300 |

The next lines start with the values.

| IC50 (AXL) [nM] | IC50 (KDR) [nM] | IC50 (Met) [nM] | Structure (SMILES) |
| --- | --- | --- | --- |
| 10 to 100 | 100 to 300 | 100 to 300 | CO/N=C/c1cc2c(Oc3ccc(NC(=O)C4(C(=O)Nc5ccc(F)cc5)CC4)cc3)ccnc2cc1OC [Compound 193, 1-N′-(4-Fluorophenyl)-1-N-[4-[7-methoxy-6-[(E)-methoxyiminomethyl]quinolin-4-yl]oxyphenyl]cyclopropane-1,1-dicarboxamide] |
| > 300 | > 300 | > 300 | CNC(=O)c1cc2c(Oc3ccc(NC(=O)C4(C(=O)N(C)c5ccc(F)cc5)CC4)cc3F)ccnc2cc1OC [Compound 262, 1-N-[3-Fluoro-4-[7-methoxy-6-(methylcarbamoyl)quinolin-4-yl]oxyphenyl]-1-N′-(4-fluorophenyl)-1-N′-methylcyclopropane-1,1-dicarboxamide] |
| > 300 | > 300 | > 300 | CNC(=O)c1cc2c(Oc3ccc(NC(=O)C4(C(=O)N(C)c5ccc(F)cc5)CC4)cc3)ccnc2cc1OC [Compound 263, 1-N′-(4-Fluorophenyl)-1-N-[4-[7-methoxy-6-(methylcarbamoyl)quinolin-4-yl]oxyphenyl]-1-N′-methylcyclopropane-1,1-dicarboxamide] |
| 10 to 100 | 100 to 300 | 100 to 300 | CNC(=O)c1cc2c(Oc3ccc(NC(=O)C4(C(=O)Nc5c(C)cc(F)cc5C)CC4)cc3F)ccnc2cc1OC [Compound 267, 1-N′-(4-Fluoro-2,6-dimethylphenyl)-1-N-[3-fluoro-4-[7-methoxy-6-(methylcarbamoyl)quinolin-4-yl]oxyphenyl]cyclopropane-1,1-dicarboxamide] |
| 100 to 300 | 10 to 100 | 100 to 300 | CNC(=O)c1cc2c(Oc3ccc(NC(=O)C4(C(=O)Nc5ccc(C(F)(F)F)cc5)CC4)cc3F)ccnc2cc1OC [Compound 273, 1-N′-[3-Fluoro-4-[7-methoxy-6-(methylcarbamoyl)quinolin-4-yl]oxyphenyl]-1-N-[4-(trifluoromethyl)phenyl]cyclopropane-1,1-dicarboxamide] |
